Experimental data from patent US11324787B2, “Analytical methods and arrays for use in the same” (SENZAGEN AB, priority 2017, dated 2022).
Values joined by “and” are separate entries in the source; they are usually repeats but may differ in a detail not shown here. Equal entries are not always repeated. “Also recorded” adds a separate entry of the source. Where two headings read alike, the source gives them in different places.

Columns and labels:
[1] = system: myeloid cell line derived from MUTZ-3; assay: GARD binary classification (SVM on GARD prediction signature, 200 transcripts); conditions: for GARD binary prediction: SVM, median calibrated decision value of replicates >0 = sensitizer
[2] = cited from earlier work; for binary class (HP*): based on human potency [41] where available, otherwise according to CLP; for HP: human potency, chemicals of random forest training and test set
[3] = cited from earlier work; for binary class: sens / non-sens; for true CLP: test set
[4] = system: myeloid cell line derived from MUTZ-3; assay: Cytotoxicity / viability by flow cytometry (propidium iodide), 24 hours exposure; conditions: yes/no; MUTZ-3 derived cells
[5] = system: myeloid cell line derived from MUTZ-3; assay: GARD random forest model predicting CLP categories (52 transcripts, Example A); conditions: test set; for GARD predicted CLP: majority voting across replicates; for predicted CLP: separate replicates
[6] = CLP annotation of 37 novel chemicals
[7] = Table 9, chemicals training set
[8] = chemicals of random forest training and test set

| SMILES | GARD binary prediction [1] | binary class (HP*) [2] | CLP [3, 6] | CLP [3, 7] | CLP [3, 8] | binary class [3, 8] | cytotox [4] | HP [2] | GARD binary classification relative to cut-off defined by benchmark samples ([1]; misclassified sensitizing chemicals) | GARD predicted CLP [5] | predicted CLP [5] | CLP ([3]; Table 10, chemicals test set 1) | true CLP ([3]; per replicate line) | true CLP [3] | Human potency [41] ([2]; test set) |
| --- | --- | --- | --- | --- | --- | --- | --- | --- | --- | --- | --- | --- | --- | --- | --- |
| Cc1cccc(O)c1O [3-methylcatechol, 3-Methylcatechol] | S | S (HP 1-4 = S) | 1A | 1A | 1A | sens | yes |  |  |  |  |  |  |  |  |
| CCCCCC#CC(=O)OC [methyl heptine carbonate] | S | S (HP 1-4 = S) | 1A | 1A | 1A | sens | yes | 2 |  |  |  |  |  |  |  |
| CCCCCCOC(=O)c1ccccc1O [hexyl salicylate] | S | S (HP 1-4 = S) | 1A | 1A | 1A | sens | yes | 4 |  |  |  |  |  |  |  |
| CCOC(=O)c1ccc(N)cc1 [benzocaine] |  | S (HP 1-4 = S) | 1B |  | 1B | sens | no | 4 | close to the cut-off |  |  |  |  |  |  |
| CC(C)=CCCC(C)=CC=O [citral] | S | S (HP 1-4 = S) | 1B | 1B | 1B | sens | yes | 3 |  |  |  |  |  |  |  |
| CC(C)C1=CC2=CC[C@@H]3[C@](C)(CCC[C@@]3(C)C(=O)O)[C@H]2CC1 [abietic acid] | S | S (HP 1-4 = S) | 1B | 1B | 1B | sens | no | 3 |  |  |  |  |  |  |  |
| CN(C)CCCN1c2ccccc2Sc2ccc(Cl)cc21 [chlorpromazine] | S | S (HP 1-4 = S) | 1A | 1A | 1A | sens | yes | 3 |  |  |  |  |  |  |  |
| O=C1C=CC(=O)C=C1 [p-benzochinone, p-benzoquinone] |  |  |  |  |  |  | yes |  |  | 1A | 1A |  |  |  |  |
| Clc1nc(Cl)nc(Cl)n1 [cyanuric chloride] |  | S (HP 1-4 = S) | 1A |  | 1A | sens | yes |  |  | no cat; also recorded: no category | no cat (2×) and 1B | 1A | 1A | 1A |  |
| C=CC(C)(O)CCC=C(C)C (stereo not shown) [linalool] |  | S (HP 1-4 = S) | 1B |  | 1B | sens | no | 4 |  | 1B | no cat and 1B (2×) | 1B | 1B | 1B | 4 |
| CC(C)=CCCC(C)CCO (stereo not shown) [citronellol] | S | NS (5-6 = NS) | 1B | 1B | 1B | sens | no | 5 |  |  |  |  |  |  |  |
| OCc1ccccc1 [benzyl alcohol] |  | NS (5-6 = NS) |  | no cat | no cat | non-sens | no |  |  |  |  |  |  |  |  |
| Oc1c(Cl)c(Cl)c(Cl)c(Cl)c1Cl [pentachlorophenol] |  | NS (5-6 = NS) | 1B | 1B | 1B | sens | no | 5 |  |  |  |  |  |  |  |
| OCCNCCO [diethanolamine] |  | NS (5-6 = NS) | 1B | 1B | 1B | sens | no | 5 |  |  |  |  |  |  |  |
